Laboratory results reported in ChEMBL document CHEMBL1152238, “Perylene side chains modulate G-quadruplex conformation in biologically relevant DNA sequences” (Bioorg Med Chem, 2008).
The source made the active and inactive calls. The rule behind the calls is not given here.

What was measured:
[1] = Binding affinity to 2GGG sequence of human telomeric DNA assessed as intramolecular folding leading to G-quadruplex formation at 25 degC after 30 mins by electrophoretic mobility shift assay
[2] = Binding affinity to 1GGG sequence of human telomeric DNA assessed as intramolecular folding leading to G-quadruplex formation at 25 degC after 30 mins by electrophoretic mobility shift assay
Homo sapiens [3] = organism: Homo sapiens; experiment: Binding affinity to 4GGG sequence of human telomeric DNA assessed as intramolecular folding leading to G-quadruplex formation at 25 degC after 30 mins by electrophoretic mobility shift assay
[4] = Binding affinity to pu27 sequence of c-myc DNA assessed as intramolecular folding leading to G-quadruplex formation at 25 degC after 30 mins by electrophoretic mobility shift assay
Homo sapiens [5] = organism: Homo sapiens; experiment: Binding affinity to 2GGG sequence of human telomeric DNA assessed as G-quadruplex stabilization at 25 degC after 30 mins by electrophoretic mobility shift assay in presence of Li+ ions
Homo sapiens [6] = organism: Homo sapiens; experiment: Binding affinity to 1GGG sequence of human telomeric DNA assessed as G-quadruplex stabilization at 25 degC after 30 mins by electrophoretic mobility shift assay in presence of Li+ ions
Homo sapiens [7] = organism: Homo sapiens; experiment: Binding affinity to 4GGG sequence of human telomeric DNA assessed as G-quadruplex stabilization at 25 degC after 30 mins by electrophoretic mobility shift assay in presence of Li+ ions
[8] = Binding affinity to pu27 sequence of c-myc DNA assessed as G-quadruplex stabilization at 25 degC after 30 mins at 25 degC by electrophoretic mobility shift assay in presence of Li+ ions
Homo sapiens [9] = organism: Homo sapiens; experiment: Binding affinity to 2GGG sequence of human telomeric DNA assessed as stabilization of dimeric form of G-quadruplex DNA at 95 degC for 5 mins by electrophoretic mobility shift assay
Homo sapiens [10] = organism: Homo sapiens; experiment: Binding affinity to 2GGG sequence of human telomeric DNA assessed as G-quadruplex formation at 25 degC upto 15 uM after 24 hr by electrophoretic mobility shift assay
Homo sapiens [11] = organism: Homo sapiens; experiment: Binding affinity to 2GGG sequence of human telomeric DNA assessed as G-quadruplex formation at 25 degC upto 15 uM after 30 mins by electrophoretic mobility shift assay
Homo sapiens [12] = organism: Homo sapiens; experiment: Binding affinity to 2GGG sequence of human telomeric DNA assessed as G-quadruplex formation at 90 degC upto 15 uM after 10 mins by electrophoretic mobility shift assay
Homo sapiens [13] = organism: Homo sapiens; experiment: Binding affinity to double stranded 4GGG sequence of human telomeric DNA assessed as G-quadruplex formation at 0.1 to 10 uM at 37 degC after 24 hrs by electrophoretic mobility shift assay
Homo sapiens [14] = organism: Homo sapiens; experiment: Binding affinity to 4GGGtail sequence of human telomeric DNA assessed as G-quadruplex formation at 0.1 to 10 uM at 37 degC after 24 hrs by electrophoretic mobility shift assay
Homo sapiens [15] = organism: Homo sapiens; experiment: Binding affinity to 4GGG sequence of human telomeric DNA assessed as G-quadruplex formation at 14 uM at 25 degC after 30 mins by circular dichroism spectroscopy in presence of K+ ions
Homo sapiens [16] = organism: Homo sapiens; experiment: Binding affinity to 4GGG sequence of human telomeric DNA assessed as G-quadruplex formation at 14 uM at 25 degC after 30 mins during thermal cycling by circular dichroism spectroscopy
[17] = Binding affinity to double stranded pu27 sequence of c-myc DNA assessed as G-quadruplex formation at 14 uM at 25 degC after 30 mins during thermal cycling by circular dichroism spectroscopy
Homo sapiens [18] = organism: Homo sapiens; experiment: Binding affinity to unfolded 4GGG sequence of human telomeric DNA assessed as G-quadruplex formation at 25 degC by circular dichroism spectroscopy in presence of Li+ ions
Homo sapiens [19] = organism: Homo sapiens; experiment: Binding affinity to 42GGG sequence of human telomeric DNA assessed as G-quadruplex formation at 25 degC upto 20 uM after 30 mins by electrophoretic mobility shift assay
Escherichia coli = experiment: Binding affinity to negatively supercoiled Escherichia coli pBR322 DNA assessed as self-aggregation at 10 to 20 uM at 37 degC after 30 mins by DNA unwinding assay
Nucleic Acid [20] = experiment: Binding affinity to negatively supercoiled Escherichia coli pBR322 DNA assessed as DNA intercalation at 20 to 50 uM at pH 6 after 30 mins by DNA unwinding assay; type: nucleic-acid assay
Homo sapiens [21] = organism: Homo sapiens; experiment: Binding affinity to 42GGG sequence of human telomeric DNA assessed as G-quadruplex formation at 90 degC after 10 mins by electrophoretic mobility shift assay
[22] = Binding affinity to pu27 sequence of c-myc DNA assessed as G-quadruplex formation at 90 degC […] after 10 mins by electrophoretic mobility shift assay
Homo sapiens [23] = organism: Homo sapiens; experiment: Binding affinity to 1GGG sequence of human telomeric DNA assessed as G-quadruplex formation at 14 uM at 25 degC after 30 mins by circular dichroism spectroscopy
Homo sapiens [24] = organism: Homo sapiens; experiment: Binding affinity to 2GGG sequence of human telomeric DNA assessed as G-quadruplex formation at 14 uM at 25 degC after 30 mins by circular dichroism spectroscopy
[25] = Binding affinity to double stranded pu27 sequence of c-myc DNA assessed as melting temperature at 14 uM at 25 degC after 30 mins by circular dichroism spectroscopy in presence of K+ ions
Homo sapiens [26] = organism: Homo sapiens; experiment: Binding affinity to 4GGG sequence of human telomeric DNA assessed as melting temperature at 14 uM at 25 degC after 30 mins by circular dichroism spectroscopy in presence of K+ ions
Nucleic Acid [27] = experiment: Binding affinity to negatively supercoiled Escherichia coli pBR322 DNA assessed as DNA intercalation at 10 to 20 uM at pH 8 after 30 mins by DNA unwinding assay; type: nucleic-acid assay
[28] = Binding affinity to double stranded pu27 sequence of c-myc DNA assessed as intramolecular folding leading to G-quadruplex formation at 0.1 to 10 uM at 37 degC after 24 hrs by electrophoretic mobility shift assay
[29] = Binding affinity to double stranded pu27 sequence of c-myc DNA assessed as intramolecular folding leading to G-quadruplex formation at 0.1 to 10 uM at 95 degC after 24 hrs by electrophoretic mobility shift assay

Row | EC50 [1] [µM] | EC50 [2] [µM] | Activity (Homo sapiens [5]) | Activity (Homo sapiens [6]) | Activity (Homo sapiens [7]) | Activity [8] | Activity (Homo sapiens [13]) | Activity (Homo sapiens [15]) | Activity (Homo sapiens [16]) | Activity (Nucleic Acid [20]) | Activity [22] | Activity (Nucleic Acid [27]) | Compound | Activity (Homo sapiens [3]) | Activity [4] | Activity (Homo sapiens [9]) | Activity (Homo sapiens [10]) | Activity (Homo sapiens [11]) | Activity (Homo sapiens [12]) | Activity (Homo sapiens [19]) | Activity (Homo sapiens [21]) | further results
1 | 12 | 10.8 | Active | Active | Active | Active | inactive | Active | Active | Active | inactive | Active | C[N+](C)(C)CCN1C(=O)c2ccc3c4ccc5c6c(ccc(c7ccc(c2c37)C1=O)c64)C(=O)N(CC[N+](C)(C)C)C5=O | – | – | – | – | – | – | – | – | Activity (Homo sapiens [23]): inactive; Activity (Homo sapiens [24]): inactive; Tm [25]: 83 °C; Tm (Homo sapiens [26]): 64 °C
2 | 3.8 | 11 | Active | Active | Active | Active | inactive | Active | inactive | Active | inactive | Active | O=C1c2ccc3c4ccc5c6c(ccc(c7ccc(c2c37)C(=O)N1CCNCCO)c64)C(=O)N(CCNCCO)C5=O | – | – | – | – | – | – | Active | Active | –
3 | 20 | 25 | Active | Active | Active | Active | inactive | Active | inactive | Active | inactive | – | c1cc2c3ccc4c5c(ccc(c6ccc7c(c1CN(CCN1CCCCC1)C7)c26)c53)CN(CCN1CCCCC1)C4 | Active | Active | – | – | – | – | inactive | inactive | Activity (Homo sapiens [18]): Active; Activity (Escherichia coli): inactive

Row | Compound | EC50 [1] [µM] | EC50 [2] [µM] | Activity (Homo sapiens [5]) | Activity (Homo sapiens [6]) | Activity (Homo sapiens [7]) | Activity [8] | Activity (Homo sapiens [13]) | Activity (Homo sapiens [15]) | Activity (Homo sapiens [16]) | Activity (Nucleic Acid [20]) | Activity [22] | Activity (Nucleic Acid [27]) | Activity (Homo sapiens [3]) | Activity [4] | Activity (Homo sapiens [9]) | Activity (Homo sapiens [10]) | Activity (Homo sapiens [11]) | Activity (Homo sapiens [12]) | Activity (Homo sapiens [19]) | Activity (Homo sapiens [21]) | further results
4 | O=C1c2ccc3c4ccc5c6c(ccc(c7ccc(c2c37)C(=O)N1CCN1CCCCC1)c64)C(=O)N(CCN1CCCCC1)C5=O | 90 | > 100 | Active | Active | Active | Active | inactive | Active | inactive | Active | inactive | – | Active | Active | Active | Active | Active | Active | inactive | inactive | Activity (Homo sapiens [14]): Active; Activity [17]: Active; Activity (Homo sapiens [18]): Active; Activity (Escherichia coli): inactive
5 | CN(C)CCN1C(=O)c2ccc3c4ccc5c6c(ccc(c7ccc(c2c37)C1=O)c64)C(=O)N(CCN(C)C)C5=O | 4 | 8.7 | Active | Active | Active | Active | inactive | Active | inactive | Active | inactive | Active | – | – | Active | Active | Active | Active | Active | Active | Activity [28]: inactive; Activity [29]: inactive; Activity (Homo sapiens [14]): inactive; Activity [17]: Active
